Laboratory results published in US20110160262A1, “Method of treating retinal vein occlusion” (SANTEN PHARMACEUTICAL CO., LTD., priority 2005, published 2011).

Tests used:
[1] = molecular target: trypsin (Homo sapiens, UniProt P07477); details: known activity; cited from earlier work
[2] = system: laser-induced choroidal neovascularization; experiment: laser-induced choroidal neovascularization in rats; format: in vivo; details: rat
Source text: In order to study the inhibitory effect of compound represented by the general formula [I] or a salt thereof on angiogenesis, the effects of nafamostat, FUT-187 and camostat, which are compounds represented by the general formula [I] or salts thereof, on laser-induced choroidal neovascularization in rats were studied. As a comparative compound, ethyl-4-(6-guanidinohexanoyloxy)benzoate methanesulfonate (hereinafter referred to as “gabexate”) represented by the following formula [III] was used.
A rat was given systemic anesthesia by intramuscular administration of 1 ml/kg of a mixed solution of a 5% (w/v) ketamine hydrochloride injectable solution and a 2% xylazine hydrochloride injectable solution (7:1), and a 0.5% (w/v) tropicamide-0.5% phenylephrine hydrochloride ophthalmic solution was instilled into the eyes to cause mydriasis, and then photocoagulation was carried out with a krypton laser photocoagulation apparatus. The photocoagulation was carried out in a posterior pole portion of ocular fundus at eight spots per eye sparsely by focusing on the retinal deep layer avoiding thick retinal vessels (coagulation conditions: spot size: 100 μm, output: 100 mW, coagulation time: 0.1 sec.). After the photocoagulation, the ocular fundus was photographed, and the site where the laser was irradiated was confirmed.
Nafamostat was dissolved in a 5% (w/v) glucose solution (prepared by dissolving D-glucose in physiological saline) to give a final concentration of 25 mg/ml, and the resulting nafamostat solution was intraperitoneally administered once a day at a dose of 1 ml/kg for 7 days including the day of surgery from the photocoagulation surgery. In the same manner, FUT-187 solutions at 25 mg/ml and 125 mg/ml and a camostat solution at 125 mg/ml were prepared, and each of the solutions was intraperitoneally administered once a day at a dose of 1 ml/kg for 7 days including the day of surgery from the photocoagulation surgery. In a comparative compound administration group, a solution obtained by dissolving gabexate in a glucose solution to give a final concentration of 50 mg/ml was administered in the same manner as above. In a vehicle administration group, a 5% (w/v) glucose solution was administered in the same manner.
On day 7 after photocoagulation, 0.1 ml of a 10% fluorescein solution was injected into the tail vein, and fluorescence fundus photography was carried out. In the fluorescence fundus photography, a spot where fluorescence leakage was not observed (absence of angiogenesis) was judged as negative, and a spot where fluorescence leakage was observed was judged as positive. When there are two photocoagulation sites where a little fluorescence leakage was observed, they were judged as positive (presence of angiogenesis). A neovascularization incidence rate was calculated in accordance with Equation 1. The neovascularization incidence rate was calculated based on the positive spot number relative to the 8 spots irradiated with a laser, and a choroidal neovascularization inhibition rate was calculated in accordance with Equation 2. The number of animals in each administration group is 4 to 7.
Each of nafamostat and FUT-187 was dissolved in a 1% (w/v) methyl cellulose solution to give a final concentration of 20 mg/ml, and the resulting solution was orally administered three times a day at a dose of 5 ml/kg for 7 days including the day of surgery from the photocoagulation surgery. In the same manner, camostat was suspended in a 1% (w/v) methyl cellulose solution to give a final concentration of 20 mg/ml, and the resulting suspension was orally administered three times a day at a dose of 5 ml/kg for 7 days including the day of surgery from the photocoagulation surgery. In a vehicle administration group, a 1% (w/v) methyl cellulose solution was administered in the same manner.
The evaluation was carried out with the same method as described above. The case number in each administration group is 6 to 7. […]

[3] = intraperitoneal administration (Table 1)
[4] = intraperitoneal, 25 mg/kg/day once a day for 7 days, evaluated day 7 after photocoagulation
[5] = oral, 300 mg/kg/day (three times a day) for 7 days, evaluated day 7
[6] = oral, intravitreal and subconjunctival administration (Tables 2 to 4)

## N=C(N)c1ccc2cc(OC(=O)c3ccc(NC4=NCCN4)cc3)ccc2c1 [FUT-187, 6′-amidino-2′-naphthyl-(4-(4,5-dihydro-1H-2-imidazolyl)amino) benzoate dimethanesulfonate]
[1]
  trypsin inhibitory activity (in words): have the same activity
[2]; [3]
  choroidal neovascularization inhibitory effect (in words): exhibited a high choroidal neovascularization inhibition rate
[2]; [4]
  Choroidal neovascularization inhibition rate (%): 40.1%
[2]; intraperitoneal, 125 mg/kg/day once a day for 7 days, evaluated day 7 after photocoagulation
  Choroidal neovascularization inhibition rate (%): 71.4%
[2]; [5]
  Choroidal neovascularization inhibition rate (%): 39.5%
[2]; [6]
  choroidal neovascularization inhibitory effect (in words): exhibits an excellent choroidal neovascularization inhibitory effect

## CCOC(=O)c1ccc(OC(=O)CCCCCNC(=N)N)cc1 [Gabexate, ethyl-4-(6-guanidinohexanoyloxy)benzoate methanesulfonate]
[1]
  trypsin inhibitory activity (in words): has a trypsin inhibitory activity
[2]; [3]
  choroidal neovascularization inhibitory effect (in words): did not exhibit a choroidal neovascularization inhibitory effect
[2]; intraperitoneal, 50 mg/kg/day once a day for 7 days, evaluated day 7 after photocoagulation
  Choroidal neovascularization inhibition rate (%): −30.2%

## N=C(N)Nc1ccc(C(=O)Oc2ccc3cc(C(=N)N)ccc3c2)cc1 [Nafamostat, 6′-amidino-2′-naphthyl-4-guanidinobenzoate dimethanesulfonate]
[1]
  trypsin inhibitory activity (in words): have the same activity
[2]; [3]
  choroidal neovascularization inhibitory effect (in words): exhibited a high choroidal neovascularization inhibition rate
[2]; [4]
  Choroidal neovascularization inhibition rate (%): 50.5%
[2]; intravitreal, 10 nmol/eye, immediately after photocoagulation and on day 3, evaluated day 7
  Choroidal neovascularization inhibition rate (%): 26.5%
[2]; [5]
  Choroidal neovascularization inhibition rate (%): 32%
[2]; [6]
  choroidal neovascularization inhibitory effect (in words): exhibits an excellent choroidal neovascularization inhibitory effect
[2]; subconjunctival, 100 μg/eye/day once a day, evaluated day 7
  Choroidal neovascularization inhibition rate (%): 51.6%
